In ChEMBL document CHEMBL1201862, “PubChem BioAssay data set” (2004):
The source made the active and inactive calls.

What was measured:
[1] = AlphaScreen signal interference compounds, dose response, artefact control for ARNT-TACC3 interaction inhibitor project, biochemical, luminescence, cherry-pick (AID 651705); assay type: functional;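 further: AlphaScreen bead proximity signal that flags compounds interfering with the detection technology; potency reflects signal decrease which marks the compound as an assay artifact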
[2] = biological target: Protein kinase C theta type (Homo sapiens, UniProt Q04759); assay: Navigating the Kinome. Panel member name: PRKCQ; assay type: functional
[3] = biological target: Ribosomal protein S6 kinase alpha-3 (Homo sapiens, UniProt P51812); assay type: functional;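 further: measured within a kinome-wide profiling panel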
[4] = biological target: Fibroblast growth factor receptor 1 (Homo sapiens, UniProt P11362); assay type: functional
[5] = biological target: Mitogen-activated protein kinase 9 (Homo sapiens, UniProt P45984); assay type: functional;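 further: value from a kinome panel profiling assay, MAPK9 panel entry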
[6] = biological target: High affinity nerve growth factor receptor (Homo sapiens, UniProt P04629); assay type: functional;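 further: NTRK1 tested as one member of a kinome-wide profiling panel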
Activated CDC42 kinase 1 = Activated CDC42 kinase 1 (Homo sapiens, UniProt Q07912); assay: Navigating the Kinome. Panel member name: ACK1; assay type: functional
[7] = biological target: Insulin-like growth factor 1 receptor (Homo sapiens, UniProt P08069); assay: Navigating the Kinome. Panel member name: IGF1R; assay type: functional
[8] = biological target: T1, cAMP-dependent protein kinase catalytic subunit PRKX (Homo sapiens, UniProt P51817); assay type: functional
T1 sequence (P51817 whole entry): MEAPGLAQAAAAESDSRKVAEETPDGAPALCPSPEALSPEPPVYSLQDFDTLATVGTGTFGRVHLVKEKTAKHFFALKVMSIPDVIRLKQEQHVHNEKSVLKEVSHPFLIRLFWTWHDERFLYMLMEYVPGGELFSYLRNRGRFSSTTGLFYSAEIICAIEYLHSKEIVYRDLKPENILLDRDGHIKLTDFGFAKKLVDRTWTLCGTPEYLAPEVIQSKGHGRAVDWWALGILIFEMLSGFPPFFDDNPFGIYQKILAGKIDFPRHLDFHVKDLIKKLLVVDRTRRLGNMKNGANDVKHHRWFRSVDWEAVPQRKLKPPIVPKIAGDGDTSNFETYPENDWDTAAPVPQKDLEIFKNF

[9] = biological target: Dual specificity protein kinase CLK4 (Homo sapiens, UniProt Q9HAZ1); assay type: functional
[10] = biological target: Dual specificity mitogen-activated protein kinase kinase 2 (Homo sapiens, UniProt P36507); assay: Navigating the Kinome. Panel member name: MAP2K2; assay type: functional
[11] = biological target: Leukocyte tyrosine kinase receptor (Homo sapiens, UniProt P29376); assay: Navigating the Kinome. Panel member name: LTK; assay type: functional
[12] = ARNT/TACC3 interaction disruptors, potency, confirmation, biochemical, AlphaScreen, cherry-picked samples (AID 651703); assay type: functional, Homo sapiens;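 further: His-tagged ARNT PAS-B domain paired with GST-TACC3 E629A dimer coactivator fragment; potency of inhibitors that break up the complex and lower AlphaScreen signal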
[13] = inhibitors of firefly luciferase expression or activity, dose response, H4 neuroglioma cells, luminescence (AID 1990); assay type: functional, cell-based
HeLa = assay: Cytotoxicity counterscreen assay for transcriptional activators of heat shock protein 70 (Hsp70). [Related pubchem assays: 1203, 1252 ]; assay type: functional; details: Homo sapiens;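 further: cells exposed to compound for 16 hours before readout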
[14] = Luminescence Cell-Based Dose Response HTS to Identify Inhibitors of 5'UTR Stem-Loop Driven Prion Protein mRNA Translation in H4 Neuroglioblastoma Cells. [Related pubchem assays: 1827 (Project Summary), 1813 (Primary HTS)]; assay type: functional
[15] = inhibitors of SNCA 5'UTR-driven reporter translation, confirmation, H4 neuroglioma cells, luminescence (AID 1988); assay type: functional, cell-based
[16] = inhibitors of intracellular T. cruzi replication, confirmation, NIH3T3 host cells, beta-gal luminescence (AID 2044); assay type: functional, cell-based;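 further: intracellular parasites grown in NIH/3T3 mouse fibroblasts as host cells; luminescent beta-galactosidase reporter signal from transgenic T. cruzi replicating inside host cells; inhibitors lower the luminescence signal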
[17] = cytotoxicity toward NIH3T3 fibroblasts, dose response, counter-screen, cell-based, ATP luminescence, mouse fibroblasts (AID 2010); assay type: functional;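 further: cells exposed to compound for about 90 hours before reading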
CHO = assay: cytotoxicity in TLR9-MyD88 CHO cells, dose response, cytotoxicity control for TLR9-MyD88 binding inhibitor project, cell-based, luminescence (AID 588339); assay type: functional, hamster; details: Cricetulus griseus;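 further: CHO cells stably coexpressing TLR9 and MyD88 fusions from primary screen; compound exposure lasted 48 hours before viability readout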
[18] = biological target: T2, Replicative DNA helicase DnaB (Mycobacterium tuberculosis, UniProt P9WMR3); assay: DnaB intein splicing inhibitors, dose response, biochemical, cell-free fluorescence (AID 449749); assay type: functional
T2 sequence (P9WMR3 whole entry): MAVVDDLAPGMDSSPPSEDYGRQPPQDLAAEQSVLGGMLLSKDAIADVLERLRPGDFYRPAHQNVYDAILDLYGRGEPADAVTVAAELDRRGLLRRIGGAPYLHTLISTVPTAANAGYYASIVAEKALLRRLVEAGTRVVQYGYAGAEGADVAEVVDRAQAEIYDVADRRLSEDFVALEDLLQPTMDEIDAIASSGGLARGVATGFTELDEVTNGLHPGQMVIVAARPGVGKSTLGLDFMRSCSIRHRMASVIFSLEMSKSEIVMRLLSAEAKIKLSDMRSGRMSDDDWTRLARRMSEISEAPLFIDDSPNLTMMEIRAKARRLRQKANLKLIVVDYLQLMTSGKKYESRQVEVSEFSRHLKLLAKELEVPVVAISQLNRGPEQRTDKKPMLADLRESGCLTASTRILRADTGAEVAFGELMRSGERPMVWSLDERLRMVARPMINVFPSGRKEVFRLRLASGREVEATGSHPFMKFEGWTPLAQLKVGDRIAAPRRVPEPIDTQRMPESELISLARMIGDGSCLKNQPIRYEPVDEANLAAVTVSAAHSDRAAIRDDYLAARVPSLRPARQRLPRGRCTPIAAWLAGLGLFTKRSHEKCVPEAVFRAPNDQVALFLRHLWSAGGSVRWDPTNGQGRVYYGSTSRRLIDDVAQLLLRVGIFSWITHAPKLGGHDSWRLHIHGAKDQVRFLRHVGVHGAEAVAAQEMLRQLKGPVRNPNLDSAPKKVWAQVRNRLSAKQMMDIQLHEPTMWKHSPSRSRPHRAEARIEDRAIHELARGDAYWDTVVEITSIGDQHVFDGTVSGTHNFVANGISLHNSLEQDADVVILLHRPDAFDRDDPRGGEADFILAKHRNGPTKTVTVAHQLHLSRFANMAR

Protein RecA = biological target: T3, Protein RecA (Mycobacterium tuberculosis, UniProt P9WHJ3); assay: Fluorescence Cell-Free Homogeneous Dose Retest to Identify Inhibitors of RecA-Intein Splicing Activity. [Related pubchem assays (depositor defined):AID2097, AID2223, AID489010, AID492950]; assay type: functional
T3 sequence (P9WHJ3 whole entry): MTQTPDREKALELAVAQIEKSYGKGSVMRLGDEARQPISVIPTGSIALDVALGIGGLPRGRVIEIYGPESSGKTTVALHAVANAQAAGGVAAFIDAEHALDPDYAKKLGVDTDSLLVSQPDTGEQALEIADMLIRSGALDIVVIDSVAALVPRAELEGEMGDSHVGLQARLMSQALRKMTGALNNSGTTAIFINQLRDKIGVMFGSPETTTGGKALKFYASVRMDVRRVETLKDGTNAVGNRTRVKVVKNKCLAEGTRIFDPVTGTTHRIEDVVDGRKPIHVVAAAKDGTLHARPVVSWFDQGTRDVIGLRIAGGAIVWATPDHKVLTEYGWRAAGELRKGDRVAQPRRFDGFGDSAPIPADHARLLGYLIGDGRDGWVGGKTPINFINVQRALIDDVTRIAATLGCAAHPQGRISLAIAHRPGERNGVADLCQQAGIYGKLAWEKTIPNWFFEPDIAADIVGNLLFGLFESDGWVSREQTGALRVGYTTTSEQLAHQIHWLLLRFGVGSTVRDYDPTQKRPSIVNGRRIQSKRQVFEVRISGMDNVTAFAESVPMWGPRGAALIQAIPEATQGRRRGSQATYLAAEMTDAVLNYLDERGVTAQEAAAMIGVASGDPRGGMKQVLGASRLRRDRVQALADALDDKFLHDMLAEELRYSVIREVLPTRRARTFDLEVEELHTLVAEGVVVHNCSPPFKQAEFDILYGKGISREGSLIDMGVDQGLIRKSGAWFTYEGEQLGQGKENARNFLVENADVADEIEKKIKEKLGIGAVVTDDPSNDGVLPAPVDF

Beta Lactamase = Beta Lactamase (Pseudomonas aeruginosa, UniProt Q932Y6); assay: beta-lactamase reporter inhibitor potency, dose response, artefact control for TLR9-MyD88 binding inhibitor project, BLA reporter cells, FRET fluorescence (AID 588341); assay type: cell-based;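 further: cell based assay in CHO-K1 cells stably expressing beta-lactamase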
Fatty acid synthase [19] = biological target: T4, Fatty acid synthase (Homo sapiens, UniProt P49327); assay: FAS thioesterase domain inhibitors, dose response, biochemical, endpoint fluorescence intensity, uHTS hits (AID 624327); assay type: functional;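 further: fluorescence from hydrolysis of an O-methyl fluorescein acyl ester substrate by the enzyme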
Fatty acid synthase [20] = biological target: T4, Fatty acid synthase; assay: FAS thioesterase domain inhibitors, dose response, biochemical, kinetic fluorescence intensity (AID 624326); assay type: functional;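 further: rate of fluorescence rise from hydrolysis of a fluorogenic O-methyl fluorescein ester substrate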
[21] = biological target: Ras and Rab interactor 1/Tyrosine-protein kinase ABL1 (Homo sapiens, UniProt P00519+Q13671); assay type: functional;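 further: biochemical TR-FRET dose-response test measuring inhibition of binding between Rin1 and Abl proteins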
[22] = biological target: Platelet-activating factor acetylhydrolase (Mus musculus, UniProt Q60963); assay: Late stage assay provider results from the probe development effort to identify inhibitors of pPAFAH: fluorescence-based dose-response biochemical gel-based competitive Activity-Based Protein Profiling (ABPP) assay for SAR compounds.; assay type: functional
Interleukin-8 [23] = biological target: T5, Interleukin-8 (Homo sapiens, UniProt P10145); assay: Dose Response confirmation of uHTS small molecule hits for cystic fibrosis induced NFkb Inhibitors in a TNFa-induced IL8 counterscreen.; assay type: functional; details: read-out: IC50_Mean
T5 sequence (P10145 whole entry): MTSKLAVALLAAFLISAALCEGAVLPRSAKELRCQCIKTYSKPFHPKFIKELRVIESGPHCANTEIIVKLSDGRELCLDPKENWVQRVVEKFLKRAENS

Interleukin-8 [24] = biological target: T5, Interleukin-8; assay: Dose Response confirmation of uHTS small molecule hits for cystic fibrosis induced NFkb Inhibitors in a PAF-induced IL8 counterscreen.; assay type: functional; details: read-out: IC50_Mean
[25] = biological target: Potassium voltage-gated channel subfamily KQT member 2 (Rattus norvegicus, UniProt O88943); assay: KCNQ2 potassium channel inhibitors, dose response, cell-based, automated electrophysiology, set II, rat KCNQ2 (AID 588637); assay type: functional

T4 sequence (P49327 whole entry, the tested form may be a part): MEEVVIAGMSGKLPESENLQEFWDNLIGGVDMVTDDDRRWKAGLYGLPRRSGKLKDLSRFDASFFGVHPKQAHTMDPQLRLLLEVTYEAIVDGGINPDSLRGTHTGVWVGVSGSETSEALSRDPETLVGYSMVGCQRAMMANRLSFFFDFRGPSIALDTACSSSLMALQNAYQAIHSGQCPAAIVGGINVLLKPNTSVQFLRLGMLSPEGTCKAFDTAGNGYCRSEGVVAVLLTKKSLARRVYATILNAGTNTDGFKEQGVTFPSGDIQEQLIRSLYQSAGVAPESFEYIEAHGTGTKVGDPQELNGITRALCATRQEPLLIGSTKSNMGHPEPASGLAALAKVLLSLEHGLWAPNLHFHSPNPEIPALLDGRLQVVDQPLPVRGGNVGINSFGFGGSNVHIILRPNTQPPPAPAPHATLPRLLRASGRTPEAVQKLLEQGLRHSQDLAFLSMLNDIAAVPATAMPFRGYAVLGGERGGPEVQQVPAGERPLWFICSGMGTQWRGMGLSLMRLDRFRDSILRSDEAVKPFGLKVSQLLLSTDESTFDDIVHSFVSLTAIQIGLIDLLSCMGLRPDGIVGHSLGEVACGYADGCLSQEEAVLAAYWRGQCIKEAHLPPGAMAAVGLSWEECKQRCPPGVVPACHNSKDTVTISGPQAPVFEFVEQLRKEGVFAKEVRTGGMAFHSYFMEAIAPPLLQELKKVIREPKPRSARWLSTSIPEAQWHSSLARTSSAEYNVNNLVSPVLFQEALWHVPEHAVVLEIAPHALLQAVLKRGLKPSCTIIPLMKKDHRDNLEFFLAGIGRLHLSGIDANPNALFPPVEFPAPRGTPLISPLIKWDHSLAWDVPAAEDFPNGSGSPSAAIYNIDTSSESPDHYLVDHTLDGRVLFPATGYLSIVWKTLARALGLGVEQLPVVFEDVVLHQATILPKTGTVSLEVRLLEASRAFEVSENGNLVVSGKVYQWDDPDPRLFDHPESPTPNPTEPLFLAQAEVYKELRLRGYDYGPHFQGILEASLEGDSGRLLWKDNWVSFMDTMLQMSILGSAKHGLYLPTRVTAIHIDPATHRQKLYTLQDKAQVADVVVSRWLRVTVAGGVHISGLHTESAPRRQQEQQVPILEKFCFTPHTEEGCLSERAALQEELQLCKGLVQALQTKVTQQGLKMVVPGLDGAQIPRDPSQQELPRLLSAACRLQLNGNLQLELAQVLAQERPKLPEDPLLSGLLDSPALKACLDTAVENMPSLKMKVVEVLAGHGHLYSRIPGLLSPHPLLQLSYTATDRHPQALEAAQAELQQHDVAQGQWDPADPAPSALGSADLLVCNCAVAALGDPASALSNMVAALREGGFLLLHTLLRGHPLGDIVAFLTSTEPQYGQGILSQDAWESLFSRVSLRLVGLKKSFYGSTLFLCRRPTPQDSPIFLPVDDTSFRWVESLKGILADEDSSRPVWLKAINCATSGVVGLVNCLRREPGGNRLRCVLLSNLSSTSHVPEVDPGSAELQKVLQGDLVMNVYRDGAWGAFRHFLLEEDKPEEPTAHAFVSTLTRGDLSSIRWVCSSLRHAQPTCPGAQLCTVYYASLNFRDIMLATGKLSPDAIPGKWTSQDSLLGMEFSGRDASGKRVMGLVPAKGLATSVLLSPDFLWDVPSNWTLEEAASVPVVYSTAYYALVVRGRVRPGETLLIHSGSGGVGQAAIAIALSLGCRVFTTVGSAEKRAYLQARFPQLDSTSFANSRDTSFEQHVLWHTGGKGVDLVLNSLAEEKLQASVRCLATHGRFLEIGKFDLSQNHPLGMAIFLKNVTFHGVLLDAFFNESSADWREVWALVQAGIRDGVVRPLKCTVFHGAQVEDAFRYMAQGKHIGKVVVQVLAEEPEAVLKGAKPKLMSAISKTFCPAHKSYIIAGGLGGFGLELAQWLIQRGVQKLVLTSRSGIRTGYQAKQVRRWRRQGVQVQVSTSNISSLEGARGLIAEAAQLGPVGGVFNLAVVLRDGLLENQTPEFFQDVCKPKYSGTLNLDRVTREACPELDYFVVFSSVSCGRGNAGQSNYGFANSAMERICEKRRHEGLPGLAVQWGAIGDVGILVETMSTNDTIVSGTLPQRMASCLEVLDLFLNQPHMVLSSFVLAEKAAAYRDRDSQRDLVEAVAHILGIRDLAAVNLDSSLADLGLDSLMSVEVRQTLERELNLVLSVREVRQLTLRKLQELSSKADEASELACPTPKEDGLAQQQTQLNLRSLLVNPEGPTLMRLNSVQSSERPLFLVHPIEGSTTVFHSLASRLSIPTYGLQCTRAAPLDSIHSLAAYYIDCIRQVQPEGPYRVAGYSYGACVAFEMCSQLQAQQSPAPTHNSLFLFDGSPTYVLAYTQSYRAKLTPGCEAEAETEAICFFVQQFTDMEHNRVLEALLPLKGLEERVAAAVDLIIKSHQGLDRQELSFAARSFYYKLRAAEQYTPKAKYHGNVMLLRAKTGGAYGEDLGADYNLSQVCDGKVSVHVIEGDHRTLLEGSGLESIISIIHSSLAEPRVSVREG
Sequence of Leukocyte tyrosine kinase receptor (P29376 whole entry, the tested form may be a part): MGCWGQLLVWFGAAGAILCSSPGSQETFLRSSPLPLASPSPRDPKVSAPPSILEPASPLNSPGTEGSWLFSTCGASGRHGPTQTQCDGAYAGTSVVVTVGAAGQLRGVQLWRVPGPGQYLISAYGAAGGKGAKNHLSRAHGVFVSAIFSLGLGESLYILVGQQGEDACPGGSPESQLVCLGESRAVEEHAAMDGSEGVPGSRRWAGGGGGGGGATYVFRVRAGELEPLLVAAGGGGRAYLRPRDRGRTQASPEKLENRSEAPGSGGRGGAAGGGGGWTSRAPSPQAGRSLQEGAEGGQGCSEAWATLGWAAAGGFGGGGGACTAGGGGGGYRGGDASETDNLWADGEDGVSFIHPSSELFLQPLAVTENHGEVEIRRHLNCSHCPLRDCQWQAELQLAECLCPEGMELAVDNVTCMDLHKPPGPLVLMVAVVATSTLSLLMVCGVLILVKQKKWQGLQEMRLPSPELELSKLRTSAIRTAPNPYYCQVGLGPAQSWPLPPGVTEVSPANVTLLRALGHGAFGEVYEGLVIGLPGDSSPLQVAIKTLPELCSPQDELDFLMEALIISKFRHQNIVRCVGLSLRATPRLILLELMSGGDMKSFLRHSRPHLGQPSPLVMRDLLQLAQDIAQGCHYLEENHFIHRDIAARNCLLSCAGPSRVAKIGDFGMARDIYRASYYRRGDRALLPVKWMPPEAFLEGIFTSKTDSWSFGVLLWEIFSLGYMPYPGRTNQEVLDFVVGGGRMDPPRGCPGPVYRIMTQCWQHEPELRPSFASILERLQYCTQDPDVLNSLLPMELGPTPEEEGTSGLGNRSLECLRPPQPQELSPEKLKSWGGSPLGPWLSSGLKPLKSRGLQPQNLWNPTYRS
Sequence of Mitogen-activated protein kinase 9 (P45984 whole entry): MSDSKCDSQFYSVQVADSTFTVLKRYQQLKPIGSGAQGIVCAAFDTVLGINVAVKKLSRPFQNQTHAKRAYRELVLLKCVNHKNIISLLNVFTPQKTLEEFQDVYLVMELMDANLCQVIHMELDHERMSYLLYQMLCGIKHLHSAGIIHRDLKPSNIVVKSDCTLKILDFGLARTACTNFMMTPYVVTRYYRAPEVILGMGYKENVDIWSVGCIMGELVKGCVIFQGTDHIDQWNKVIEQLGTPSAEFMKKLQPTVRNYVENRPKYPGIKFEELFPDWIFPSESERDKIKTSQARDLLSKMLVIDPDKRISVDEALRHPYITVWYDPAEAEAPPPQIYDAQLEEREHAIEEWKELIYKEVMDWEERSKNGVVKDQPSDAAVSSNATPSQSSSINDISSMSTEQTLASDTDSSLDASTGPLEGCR
Sequence of High affinity nerve growth factor receptor (P04629 whole entry): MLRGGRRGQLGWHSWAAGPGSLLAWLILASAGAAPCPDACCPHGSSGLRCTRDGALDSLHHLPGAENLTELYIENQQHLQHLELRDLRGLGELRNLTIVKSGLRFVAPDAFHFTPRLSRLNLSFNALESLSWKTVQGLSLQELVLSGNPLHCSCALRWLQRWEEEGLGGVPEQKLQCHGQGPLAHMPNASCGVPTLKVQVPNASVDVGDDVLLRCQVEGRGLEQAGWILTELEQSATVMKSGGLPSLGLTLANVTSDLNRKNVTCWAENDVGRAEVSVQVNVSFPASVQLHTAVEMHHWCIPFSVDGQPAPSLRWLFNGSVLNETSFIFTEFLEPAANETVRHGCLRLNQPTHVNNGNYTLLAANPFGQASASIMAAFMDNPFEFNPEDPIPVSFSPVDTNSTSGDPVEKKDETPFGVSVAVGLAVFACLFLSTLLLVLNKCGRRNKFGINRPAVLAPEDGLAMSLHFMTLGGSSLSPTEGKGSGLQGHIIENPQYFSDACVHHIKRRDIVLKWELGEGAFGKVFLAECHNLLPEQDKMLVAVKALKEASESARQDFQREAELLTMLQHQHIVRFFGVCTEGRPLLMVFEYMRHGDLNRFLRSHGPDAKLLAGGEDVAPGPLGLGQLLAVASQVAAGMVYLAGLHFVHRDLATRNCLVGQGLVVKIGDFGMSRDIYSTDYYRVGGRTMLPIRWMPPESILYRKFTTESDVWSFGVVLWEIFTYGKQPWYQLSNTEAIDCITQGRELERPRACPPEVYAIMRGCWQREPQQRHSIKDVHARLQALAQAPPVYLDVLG
Sequence of Beta Lactamase (Q932Y6 whole entry, the tested form may be a part): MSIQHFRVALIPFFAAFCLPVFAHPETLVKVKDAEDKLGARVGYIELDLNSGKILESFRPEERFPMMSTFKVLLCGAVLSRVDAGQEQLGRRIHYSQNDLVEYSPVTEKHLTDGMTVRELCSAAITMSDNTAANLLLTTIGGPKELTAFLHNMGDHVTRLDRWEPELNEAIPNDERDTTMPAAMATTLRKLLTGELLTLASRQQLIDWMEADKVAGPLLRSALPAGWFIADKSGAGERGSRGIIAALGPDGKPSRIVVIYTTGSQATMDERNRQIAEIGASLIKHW

Q: Which AC50 [1] does the source give for `O=C(NCCCn1ccnc1)Nc1cccc(Cl)c1` here?
A: 116 µM (active)

Q: With `Nc1nccc2nc(-c3ccccc3)cn12` as the compound, how does the Ki [2] read?
A: 50.1 µM (active)

Q: What about the Ki [3] of the same compound?
A: 50.1 µM (active)

Q: What about the Ki [4] of the same compound?
A: 79.4 µM (active)

Q: What about the Ki [5] of the same compound?
A: 100 µM (active)

Q: What about the Ki [6] of the same compound?
A: 31.6 µM (active)

Q: And the Ki (Activated CDC42 kinase 1)?
A: 15.8 µM (active)

Q: And the Ki [7]?
A: 39.8 µM (active)

Q: What about the Ki [8] of the same compound?
A: 79.4 µM (active)

Q: And the Ki [9]?
A: 79.4 µM (active)

Q: What about the Ki [10] of the same compound?
A: 79.4 µM (active)

Q: What about the Ki [11] of the same compound?
A: 50.1 µM (active)

Q: Which AC50 [12] does the source give for `O=C(COC(=O)c1ccc([N+](=O)[O-])o1)Nc1ccc(F)cc1` here?
A: 109 µM (active)

Q: For `O=Cc1s/c(=N\S(=O)(=O)c2ccccc2)n(CCCCl)c1Cl`, which EC50 [13] is on record?
A: > 60 µM (not active)

Q: And the CC50 (HeLa)?
A: > 3.67 µM (not active)

Q: And the EC50 [14]?
A: > 120 µM (not active)

Q: What about the EC50 [15] of the same compound?
A: 9.57 µM (active)

Q: And the EC50 [16]?
A: 1.39 µM (active)

Q: And the EC50 [17]?
A: 2.82 µM (active)

Q: And the IC50 (CHO)?
A: 1.03 µM (active)

Q: And the AC50 [18]?
A: 4.19 µM (active)

Q: And the EC50 (Protein RecA)?
A: 34.9 µM (active)

Q: And the IC50 (Beta Lactamase)?
A: 19.5 µM (inactive)

Q: What about the IC50 (Fatty acid synthase [19]) of the same compound?
A: 6.11 µM (active)

Q: And the IC50 (Fatty acid synthase [20])?
A: 3.15 µM (active)

Q: Which IC50 [21] does the source give for `CC1(c2nnc(-c3ccncc3)o2)CC(c2ccc(F)cc2)=NO1` (stereo not given) here?
A: 10.8 µM (inactive)

Q: For `Cc1cc(N2CCN(C(=O)Oc3ccc(-c4ccccc4)cc3)CC2)c2ccccc2n1`, which IC50 [22] is on record?
A: 0.091 µM (active)

Q: What does the source list for `Nc1nccc(SCc2ccc(Cl)cc2Cl)n1`?
A: IC50 (Interleukin-8 [23]): > 79 µM (inactive); IC50 (Interleukin-8 [24]): 6.67 µM (active)

Q: Which IC50 [25] does the source give for `Cc1ccc(-c2cc(C(=O)N3CC(C)OC(C)C3)c3ccccc3n2)o1` (stereo not given) here?
A: 0.61 µM (active)
